# Where two headings read alike, the source gives them in different places.
# Experiments:
# [1] = test system: B. anthracis Sterne; assay: microbe, parasite or virus in culture; format: cell-based; settings: Bacillus anthracis
# [2] = test system: S. aureus RN450; assay: microbe, parasite or virus in culture; format: cell-based; settings: Staphylococcus aureus
# [3] = test system: B. anthracis Vollum1B; assay: microbe, parasite or virus in culture; format: cell-based; settings: Bacillus anthracis
# [4] = test system: Peptidoglycan synthesis of S. aureus RN450; assay: microbe, parasite or virus in culture; format: cell-based; settings: Staphylococcus aureus
# [5] = test system: B. anthracis Ame; assay: microbe, parasite or virus in culture; format: cell-based; settings: Bacillus anthracis
# [6] = test system: S. pneumoniae 157E; assay: microbe, parasite or virus in culture; format: cell-based; settings: Streptococcus pneumoniae
# [7] = test system: B. cereus 97/4144; assay: microbe, parasite or virus in culture; format: cell-based; settings: Bacillus cereus
# [8] = test system: B. anthracis V770NPIR; format: cell-based
# [9] = test system: B. anthracis V770; assay: microbe, parasite or virus in culture; format: cell-based; settings: Bacillus anthracis
# [10] = test system: 16S rRNA; settings: cited from earlier work
# [11] = test system: B. cereus 98/2658; assay: microbe, parasite or virus in culture; format: cell-based; settings: Bacillus cereus
# [12] = test system: protein synthesis; settings: cited from earlier work
# [13] = test system: S. aureus RN4250; assay: microbe, parasite or virus in culture; format: cell-based
# [14] = test system: B. anthracis panel; assay: microbe, parasite or virus in culture; format: cell-based; settings: Bacillus anthracis
# [15] = test system: E. faecalis 29212; assay: microbe, parasite or virus in culture; format: cell-based; settings: Enterococcus faecalis
# [16] = test system: E. faecium 494; assay: microbe, parasite or virus in culture; format: cell-based; settings: Enterococcus faecium
# [17] = test system: Protein synthesis of S. aureus RN450; assay: microbe, parasite or virus in culture; format: cell-based; settings: Staphylococcus aureus
# [18] = test system: S. pneumoniae 700905; assay: microbe, parasite or virus in culture; format: cell-based; settings: Streptococcus pneumoniae
# [19] = test system: S. pneumoniae PBS1339; parameters: species or system mice; settings: mouse, in vivo
# [20] = test system: B. cereus 95/3032; assay: microbe, parasite or virus in culture; format: cell-based; settings: Bacillus cereus
# [21] = test system: B. cereus 98/2620; assay: microbe, parasite or virus in culture; format: cell-based; settings: Bacillus cereus
# [22] = test system: S. aureus MRSA5; assay: microbe, parasite or virus in culture; format: cell-based; settings: Staphylococcus aureus
smiles,measurement,setting,value
"C[C@H]1c2cccc(O)c2C(=O)C2=C(O)[C@]3(O)C(=O)C(C(N)=O)=C(O)[C@@H](N(C)C)[C@@H]3[C@@H](O)[C@@H]21 [Doxycycline, reference compound]",MIC,[1],0.12 µg/mL
same,MIC,[2],0.06 µg/mL
same,MIC,[3],0.06 µg/mL
same,IC50,[4]; read-out: Peptidoglycan synthesis IC50,3.9 µg/mL
same,IC90,[4]; read-out: Peptidoglycan synthesis IC90,18.2 µg/mL
same,MIC,[5],< 0.03 µg/mL
same,MIC,[6],0.06 µg/mL
same,MIC,[7],4 µg/mL
same,susceptibility in words,[8],fully doxycycline-resistant
same,MIC,[9],1 µg/mL
same,effect on reactivity of nucleotides within the 16S rRNA (chemical footprint),[10],affect the reactivity of nucleotides
same,MIC,[11],≤ 0.06 µg/mL
same,inhibition of protein synthesis in words,[12],potent inhibitors of protein synthesis
same,susceptibility in words,[13],resistant
same,MIC,"[13]; Staphylococcus aureus, RN4250",4 µg/mL
same,MIC50,[14],0.06 µg/mL
same,MIC90,[14],0.25 µg/mL
same,MIC,[15],4 µg/mL
same,MIC,[16],16 µg/mL
same,IC50,[17]; read-out: Protein synthesis IC50,< 0.03 µg/mL
same,IC90,[17]; read-out: Protein synthesis IC90,< 0.03 µg/mL
same,MIC,[18],4 µg/mL
same,PD50,[19]; iv,7.1 mg/kg
same,PD50,[19]; po,35.3 mg/kg
same,MIC,[20],≤ 0.06 µg/mL
same,MIC,[21],4 µg/mL
same,MIC,[22],4 µg/mL

# — patent US8440646B1 (priority 2006, dated 2013)
